Data on 44 compounds can be found in PMC9289666, “Highly Parallelized, Multicolor Optogenetic Recordings of Cellular Activity for Therapeutic Discovery Applications in Ion Channels and Disease-Associated Excitable Cells” (Frontiers in Molecular Neuroscience, 2022).

The structures appear in SMILES notation.

T1 sequence (Q15858 whole entry): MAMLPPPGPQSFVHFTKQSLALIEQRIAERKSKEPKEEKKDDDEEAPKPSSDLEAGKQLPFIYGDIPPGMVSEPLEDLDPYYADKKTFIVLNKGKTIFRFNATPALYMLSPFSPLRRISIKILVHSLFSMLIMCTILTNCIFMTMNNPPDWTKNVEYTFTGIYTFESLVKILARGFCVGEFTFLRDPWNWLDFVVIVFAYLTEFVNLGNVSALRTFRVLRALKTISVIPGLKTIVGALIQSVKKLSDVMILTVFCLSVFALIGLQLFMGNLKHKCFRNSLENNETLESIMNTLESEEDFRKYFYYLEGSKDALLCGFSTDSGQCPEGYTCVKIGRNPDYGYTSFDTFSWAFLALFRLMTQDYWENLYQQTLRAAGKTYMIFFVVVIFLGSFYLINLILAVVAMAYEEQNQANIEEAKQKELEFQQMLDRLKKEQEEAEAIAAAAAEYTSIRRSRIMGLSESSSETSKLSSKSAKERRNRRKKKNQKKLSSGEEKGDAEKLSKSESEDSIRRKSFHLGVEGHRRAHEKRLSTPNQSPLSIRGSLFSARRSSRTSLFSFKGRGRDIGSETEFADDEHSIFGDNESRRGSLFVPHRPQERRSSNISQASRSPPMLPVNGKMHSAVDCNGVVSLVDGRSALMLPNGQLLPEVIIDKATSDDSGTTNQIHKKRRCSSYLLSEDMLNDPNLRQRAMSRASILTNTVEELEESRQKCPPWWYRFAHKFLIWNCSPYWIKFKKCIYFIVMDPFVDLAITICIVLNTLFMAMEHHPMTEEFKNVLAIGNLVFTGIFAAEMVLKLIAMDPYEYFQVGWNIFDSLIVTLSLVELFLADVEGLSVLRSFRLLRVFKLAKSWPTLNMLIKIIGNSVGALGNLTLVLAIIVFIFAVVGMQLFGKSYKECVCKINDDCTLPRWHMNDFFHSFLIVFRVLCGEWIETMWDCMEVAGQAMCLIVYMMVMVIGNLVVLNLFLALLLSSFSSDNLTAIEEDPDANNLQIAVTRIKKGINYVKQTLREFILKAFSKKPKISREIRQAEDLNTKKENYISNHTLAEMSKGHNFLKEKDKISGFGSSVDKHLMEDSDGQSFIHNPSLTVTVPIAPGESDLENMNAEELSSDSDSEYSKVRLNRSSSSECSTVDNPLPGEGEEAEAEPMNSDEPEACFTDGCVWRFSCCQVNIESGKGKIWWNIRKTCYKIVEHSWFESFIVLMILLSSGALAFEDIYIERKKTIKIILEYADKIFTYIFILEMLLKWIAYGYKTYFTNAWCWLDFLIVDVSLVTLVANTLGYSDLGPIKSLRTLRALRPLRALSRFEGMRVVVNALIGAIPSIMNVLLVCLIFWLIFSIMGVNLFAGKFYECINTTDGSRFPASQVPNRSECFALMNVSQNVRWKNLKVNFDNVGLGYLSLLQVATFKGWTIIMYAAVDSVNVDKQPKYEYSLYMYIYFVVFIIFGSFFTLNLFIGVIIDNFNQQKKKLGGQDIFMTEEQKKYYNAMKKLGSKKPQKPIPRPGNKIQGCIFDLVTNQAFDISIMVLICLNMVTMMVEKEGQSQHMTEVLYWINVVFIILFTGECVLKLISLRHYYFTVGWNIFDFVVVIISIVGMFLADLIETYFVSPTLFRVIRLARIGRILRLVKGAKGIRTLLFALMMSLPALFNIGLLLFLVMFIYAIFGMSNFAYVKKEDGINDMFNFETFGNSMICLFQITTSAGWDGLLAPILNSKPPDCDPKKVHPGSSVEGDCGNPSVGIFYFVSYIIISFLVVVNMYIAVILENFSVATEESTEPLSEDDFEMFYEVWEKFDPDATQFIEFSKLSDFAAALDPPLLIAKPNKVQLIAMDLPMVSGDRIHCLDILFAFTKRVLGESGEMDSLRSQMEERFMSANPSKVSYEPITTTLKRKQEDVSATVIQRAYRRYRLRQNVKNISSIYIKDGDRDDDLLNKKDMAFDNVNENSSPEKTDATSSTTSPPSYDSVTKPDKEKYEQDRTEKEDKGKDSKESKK

The first data set has as its system Nav1.5.
Experiment: not given
The following applies: cited from earlier work.
For `CCN(CC)CCCC(C)Nc1ccnc2cc(Cl)ccc12` (stereo not drawn) [Chloroquine], the IC50 is 36.5 µM. On to `CC(C)NC[C@@H](O)COc1cccc2ccccc12` [(R)-Propranolol], for which the IC50 was 7.5 µM. Take `CC(C)COCC(CN(Cc1ccccc1)c1ccccc1)N1CCCC1` (stereo not drawn) [Bepridil]: the IC50 was 1.9 µM. `CN(C)C(=O)C(CCN1CCC(O)(c2ccc(Cl)cc2)CC1)(c1ccccc1)c1ccccc1` [Loperamide]: the IC50 is 2.9 µM.

The data set is the same for the next values; noted with them: read-out: Nav1.5 Ionworks (IC50); automated patch clamp, literature reported; ref Harmer et al., 2011; cited from earlier work.
For the compound `OCCN1CCN(CCCN2c3ccccc3Sc3ccc(C(F)(F)F)cc32)CC1` [Fluphenazine], the IC50 was 8 µM.

Take `CN1CCN(CCCN2c3ccccc3Sc3ccc(C(F)(F)F)cc32)CC1` [Trifluoperazine]: the IC50 was 7.4 µM. `CN1CCN(C2=Nc3cc(Cl)ccc3Nc3ccccc32)CC1` [Clozapine]: the IC50 is 11.6 µM. In the case of `COc1ccc(C(CN(C)C)C2(O)CCCCC2)cc1` (stereo not drawn) [Venlafaxine], the IC50 was 90.1 µM. `CNCCC=C1c2ccccc2CCc2ccccc21` [Nortriptyline]: the IC50 is 2 µM.

`COC(=O)C1=C(C)NC(C)=C(C(=O)OCCN(C)Cc2ccccc2)C1c1cccc([N+](=O)[O-])c1` (stereo not drawn) [Nicardipine]: the IC50 was 4.3 µM.

As to `CNCCCN1c2ccccc2CCc2ccccc21` [Desipramine], the IC50 was 2.4 µM.

Take `O=C1CC2(CCCC2)CC(=O)N1CCCCN1CCN(c2ncccn2)CC1` [Buspirone]: the IC50 is 125 µM. Turning to `CCOC(=O)Nc1ccc2c(c1)N(C(=O)CCN1CCOCC1)c1ccccc1S2` [Moricizine], the IC50 was 1.2 µM. As for `OCCN(CCO)c1nc(N2CCCCC2)c2nc(N(CCO)CCO)nc(N3CCCCC3)c2n1` [Dipyridamole], the IC50 was 19.3 µM.

Turning to `CNCCC(Oc1ccc(C(F)(F)F)cc1)c1ccccc1` (stereo not drawn) [Fluoxetine], the IC50 is 4.9 µM. As to `CC(CN(C)C)CN1c2ccccc2CCc2ccccc21` (stereo not drawn) [Trimipramine], the IC50 was 2.7 µM. For `CCN(CC)Cc1cc(Nc2ccnc3cc(Cl)ccc23)ccc1O` [Amodiaquin], the IC50 was 9.7 µM. On to `CN(C)CCCC1(c2ccc(F)cc2)OCc2cc(C#N)ccc21` (stereo not drawn) [Citalopram], for which the IC50 was 14.7 µM.

For the compound `CN1CCC(=C2c3ccccc3C=Cc3ccccc32)CC1` [Cyproheptadine], the IC50 is 6.1 µM.

As for `CC(=O)N1CCN(c2ccc(OCC3COC(Cn4ccnc4)(c4ccc(Cl)cc4Cl)O3)cc2)CC1` (stereo not drawn) [Ketoconazole], the IC50 is 44.9 µM. On to `Cc1cccc(C)c1NC(=O)C1CCCCN1C` (stereo not drawn) [Mepivacaine], for which the IC50 was 81.4 µM. `CCc1nc(N)nc(N)c1-c1ccc(Cl)cc1` [Pyrimethamine]: the IC50 is 24.6 µM. Turning to `CC#C[C@]1(O)CC[C@H]2[C@@H]3CCC4=CC(=O)CCC4=C3[C@@H](c3ccc(N(C)C)cc3)C[C@@]21C` [Mifepristone], the IC50 was 25.8 µM. As to `O=C(CCCN1CCC(O)(c2ccc(Cl)cc2)CC1)c1ccc(F)cc1` [Haloperidol], the IC50 was 2.3 µM. Turning to `CC(C)N(CCC(C(N)=O)(c1ccccc1)c1ccccn1)C(C)C` (stereo not drawn) [Disopyramide], the IC50 was 302 µM. Regarding `CC(Oc1c(Cl)cccc1Cl)C1=NCCN1` (stereo not drawn) [Lofexidine], the IC50 was 27.2 µM. As for `O=C(NCC1CCCCN1)c1cc(OCC(F)(F)F)ccc1OCC(F)(F)F` (stereo not drawn) [Flecainide], the IC50 is 5.8 µM. On to `C=C[C@H]1C[N@@]2CC[C@H]1C[C@@H]2[C@@H](O)c1ccnc2ccc(OC)cc12` [Quinidine], for which the IC50 is 9.7 µM.

`Clc1ccc2c(c1)C(N1CCNCC1)=Nc1ccccc1O2` [Amoxapine]: the IC50 is 5.8 µM.

The next data set has as its target T1, human Nav.1.7 (Homo sapiens, UniProt Q15858).
T1 construct: expressed in transfected cells
As to the kind of experiment: Nav1.7 spiking HEK assay on Swarm. In kind it is cell-based.
Conditions: not given
On to `Cc1cc2c(s1)Nc1ccccc1N=C2N1CCN(C)CC1` [Olanzapine], for which the “Nav1.7 Swarm (score at 3 µM)” value is reported as 1.09. Still for that read-out and setting: the same measure for `CCN(CC)CCCC(C)Nc1ccnc2cc(Cl)ccc12` (stereo not drawn) [Chloroquine]: 0.98. The same measure, in the same setting: for `CN[C@H]1CC[C@@H](c2ccc(Cl)c(Cl)c2)c2ccccc21` [Sertraline] the value was 0.87. Still for that read-out and setting: for `CNCCC(Oc1ccc(C(F)(F)F)cc1)c1ccccc1` (stereo not drawn) [Fluoxetine] the value was 0.64. With `Cc1nc2n(c(=O)c1CCN1CCC(c3noc4cc(F)ccc34)CC1)CCCC2` [Risperidone], the “Nav1.7 Swarm (score at 3 µM)” value came out at 0.89. `CCCCc1oc2ccccc2c1C(=O)c1cc(I)c(OCCN(CC)CC)c(I)c1` [Amiodarone]: the “Nav1.7 Swarm (score at 3 µM)” value turned out to be 0.52. Same read-out and setting: for `CN(C)C(=O)C(CCN1CCC(O)(c2ccc(Cl)cc2)CC1)(c1ccccc1)c1ccccc1` [Loperamide] the value was 0.04. Still for that read-out and setting: for `CCN(CC)CC(=O)Nc1c(C)cccc1C` [Lidocaine] the value was 0.91.

The data set is the same for the next values; noted with them: 8 mM bath [K+]; mean spike amplitude across all test pulses.
`CCN(CC)CC(=O)Nc1c(C)cccc1C` [Lidocaine] returned an IC50 of 15 µM.

The same data set, now with this note: compounds at 1 μM; cutoff 0.5 mean spike amplitude.
Take `CN(C)CCCN1c2ccccc2CCc2ccccc21` [Imipramine]: the “Hit identification in Prestwick Chemical Library pilot screen” value is listed as “hits”.

For the compound `CNCCC=C1c2ccccc2CCc2ccccc21` [Nortriptyline], the “Hit identification in Prestwick Chemical Library pilot screen” value was “hits”. Still for that read-out and setting: the same measure for `CNCCCN1c2ccccc2CCc2ccccc21` [Desipramine]: “hits”; for `CC(CN(C)C)CN1c2ccccc2CCc2ccccc21` (stereo not drawn) [Trimipramine]: “hits”; for `CN(C)CCC=C1c2ccccc2COc2ccccc21` [doxepin]: “hits”. On the same count and under the same terms, for `CCc1nn(CCCN2CCN(c3cccc(Cl)c3)CC2)c(=O)n1CCOc1ccccc1` [nefazodone] the value was “hits”.

Still in this data set, the particulars now being: normalized mean spike amplitude score; Prestwick library compounds.
Regarding `OCCN1CCN(CCCN2c3ccccc3Sc3ccc(C(F)(F)F)cc32)CC1` [Fluphenazine], the “Nav1.7 Swarm (score at 3 µM)” value came out at 0.31. Same read-out and setting: for `CN1CCN(CCCN2c3ccccc3Sc3ccc(C(F)(F)F)cc32)CC1` [Trifluoperazine] the value was 0.25. Still for that read-out and setting: the same measure for `CN1CCN(C2=Nc3cc(Cl)ccc3Nc3ccccc32)CC1` [Clozapine]: 0.74.

Take `CN(C)CCCN1c2ccccc2CCc2ccccc21` [Imipramine]: the “Nav1.7 Swarm (score at 3 µM)” value is on record as 0.35. On the same count and under the same terms, the same measure for `COc1ccc(C(CN(C)C)C2(O)CCCCC2)cc1` (stereo not drawn) [Venlafaxine]: 0.95; for `CNCCC=C1c2ccccc2CCc2ccccc21` [Nortriptyline]: 0.19; for `COC(=O)C1=C(C)NC(C)=C(C(=O)OCCN(C)Cc2ccccc2)C1c1cccc([N+](=O)[O-])c1` (stereo not drawn) [Nicardipine]: 0.07. Same read-out and setting: for `Nc1nc2ccc(OC(F)(F)F)cc2s1` [Riluzole] the value was 0.14. `CNCCCN1c2ccccc2CCc2ccccc21` [Desipramine]: the “Nav1.7 Swarm (score at 3 µM)” value was determined as 0.38.

On to `O=C1CC2(CCCC2)CC(=O)N1CCCCN1CCN(c2ncccn2)CC1` [Buspirone], for which the “Nav1.7 Swarm (score at 3 µM)” value came to 0.97. The same measure, in the same setting: the same measure for `CCOC(=O)Nc1ccc2c(c1)N(C(=O)CCN1CCOCC1)c1ccccc1S2` [Moricizine]: 0.15; for `CCCNCC(O)COc1ccccc1C(=O)CCc1ccccc1` (stereo not drawn) [Propafenone]: 0.20. Still for that read-out and setting: the same measure for `OCCN(CCO)c1nc(N2CCCCC2)c2nc(N(CCO)CCO)nc(N3CCCCC3)c2n1` [Dipyridamole]: 0.92; for `CC(C)NC[C@@H](O)COc1cccc2ccccc12` [(R)-Propranolol]: 0.63; for `COC(=O)C1=C(C)NC(C)=C(C(=O)OC)C1c1ccccc1[N+](=O)[O-]` [Nifedipine]: 0.97. Still for that read-out and setting: the same measure for `CC(CN(C)C)CN1c2ccccc2CCc2ccccc21` (stereo not drawn) [Trimipramine]: 0.37; for `CCN(CC)Cc1cc(Nc2ccnc3cc(Cl)ccc23)ccc1O` [Amodiaquin]: 0.95; for `CN(C)CCCC1(c2ccc(F)cc2)OCc2cc(C#N)ccc21` (stereo not drawn) [Citalopram]: 0.92. On to `CN1CCC(=C2c3ccccc3C=Cc3ccccc32)CC1` [Cyproheptadine], for which the “Nav1.7 Swarm (score at 3 µM)” value worked out at 0.44. The same measure, in the same setting: the same measure for `CC(=O)N1CCN(c2ccc(OCC3COC(Cn4ccnc4)(c4ccc(Cl)cc4Cl)O3)cc2)CC1` (stereo not drawn) [Ketoconazole]: 0.96. The same measure, in the same setting: the same measure for `Cc1cccc(C)c1NC(=O)C1CCCCN1C` (stereo not drawn) [Mepivacaine]: 0.96; for `CCc1nc(N)nc(N)c1-c1ccc(Cl)cc1` [Pyrimethamine]: 0.99; for `CC#C[C@]1(O)CC[C@H]2[C@@H]3CCC4=CC(=O)CCC4=C3[C@@H](c3ccc(N(C)C)cc3)C[C@@]21C` [Mifepristone]: 0.97.

As for `O=C(CCCN1CCC(O)(c2ccc(Cl)cc2)CC1)c1ccc(F)cc1` [Haloperidol], the “Nav1.7 Swarm (score at 3 µM)” value is on record as -0.09. Same read-out and setting: for `CC(C)N(CCC(C(N)=O)(c1ccccc1)c1ccccn1)C(C)C` (stereo not drawn) [Disopyramide] the value was 0.94; for `CC(Oc1c(Cl)cccc1Cl)C1=NCCN1` (stereo not drawn) [Lofexidine], 0.88.

Take `O=C(NCC1CCCCN1)c1cc(OCC(F)(F)F)ccc1OCC(F)(F)F` (stereo not drawn) [Flecainide]: the “Nav1.7 Swarm (score at 3 µM)” value is 0.72. The same measure, in the same setting: for `CCOC(=O)N1CCC(=C2c3ccc(Cl)cc3CCc3cccnc32)CC1` [Loratadine] the value was 0.62; for `COc1c(N2C[C@@H]3CCCN[C@@H]3C2)c(F)cc2c(=O)c(C(=O)O)cn(C3CC3)c12` [Moxifloxacin], 1.06. Same read-out and setting: the same measure for `CCN(CC)CCNC(=O)c1ccc(N)cc1` [Procainamide]: 1.00. On the same count and under the same terms, for `CC(C)(C)c1ccc(C(O)CCCN2CCC(C(O)(c3ccccc3)c3ccccc3)CC2)cc1` (stereo not drawn) [Terfenadine] the value was 0.39.
